Legend:
HDAC3 = assay: qPCR relative gene expression in T24 cells, HDAC3; type: cell-based, human; conditions: 48 h; 2c at 32 µM, 2d at 68 µM; normalized to B2M, 2^−ΔΔCt vs vehicle; mean ± SEM, n = 5
Protocol: (§1) The T24 cells were cultured as previously mentioned. They were seeded into 6-well plates (2 × 10^5 cells/well) and, after 24 h of incubation, they were treated for 48 h with 2c and 2d (at 32 and 68 µM, respectively). Afterwards, they were washed with phosphate-buffered saline. The cellular lysate was prepared with E.Z.N.A.® RNA-Lock Reagent (Omega Bio-tek, Norcross, GA, USA) to preserve and immediately stabilize the total RNA for the subsequent gene expression assays. The total RNA isolated from the cells using the E.Z.N.A.® HP Total RNA Isolation Kit (Omega Bio-tek) was reverse-transcribed to cDNA using the AffinityScript QPCR cDNA Synthesis Kit (Agilent Technologies, Santa Clara, CA, USA) and 1000 ng of the RNA sample.
(§2) The cDNA synthesized was employed for qPCR using Brilliant III Ultra-Fast SYBR® Green QPCR Master Mix (Agilent Technologies) in a Mx3000P qPCR System (Agilent Technologies), employing a 96-well plate with 20 μL of PCR reaction per well and 10 pmol each of forward and reverse gene-specific primers. Ten genes were analyzed (see Table 4). The relative gene expressions were determined using Beta-2-microglobulin (B2M) as housekeeping, and the delta-delta Ct method (2^−ΔΔCt method) with regard to the vehicle-treated group (i.e., the reference group). Five biological replicates were used from each group (treated and reference group). […]

CDC25A = assay: qPCR relative gene expression in T24 cells, CDC25A; type: cell-based, human; conditions: 48 h; 2c at 32 µM, 2d at 68 µM; normalized to B2M, 2^−ΔΔCt vs vehicle; mean ± SEM, n = 5
Protocol: as §1, §2

DU-145 (prostate) cells = assay: MTT cytotoxicity assay, DU-145; type: cell-based; conditions: Homo sapiens, 48 h incubation (b12: 72 h), n = 3, read-out: IC50 ± SEM DU-145
Protocol: (§3) The 3-acyl-2,5-bis(phenylamino)-1,4-benzoquinones 2a–q were evaluated for their in vitro cytotoxic activities against normal human embryonic kidney cells (HEK-293 cells) and two human cancer cell lines (T24 and DU-145 cells) in 72 h drug exposure assays. The cytotoxic activities of the new compounds were measured using conventional microculture tetrazolium reduction assays. The cytotoxic activities are expressed in terms of IC50. Doxorubicin, a clinically used anti-cancer agent, was taken as a positive control.
(§4) Human cancer cell lines T24 (bladder) and DU-145 (prostate), and non-tumor HEK-293 cells were obtained from the American Type Culture Collection (ATCC, Manassas, VA, USA). The cultures were maintained at a density of 1× 10^5 cells/mL and the medium was changed at 48- to 72-h intervals. They were cultured in high-glucose Dulbecco’s modified Eagle medium (Gibco, Grand Island, NY, USA) supplemented with 10% fetal calf serum, penicillin (100 U/mL), and streptomycin (100 μg/mL). All cultures were kept at 37 °C in 95% air/5% CO2 at 100% humidity. Phosphate-buffered saline (PBS) was purchased from Gibco. Cells were incubated at the indicated times at 37 °C, with or without quinones at various concentrations.
(§5) The cytotoxicity of the quinones was assessed by following the reduction of MTT (3-(4,5-Dimethylthiazol-2-yl)-2,5-diphenyltetrazolium bromide) to formazan blue. Cells were seeded into 96-well plates at a density of 10,000 cells/well for 24 h and then incubated for 48 h, with or without the quinone derivatives. Doxorubicin was used as the standard chemotherapeutic agent (positive control). Cells were then washed twice with warm PBS and incubated with MTT (0.5 mg/mL) for 2 hours at 37 °C. Blue formazan crystals were solubilized by adding 100 µL DMSO/well, and the optical density of the coloured solutions was subsequently read at 550 nm. Results are expressed as percentage of MTT reduction, compared to untreated control conditions. The IC50 values were calculated using the GraphPad Prism software (San Diego, CA, USA).

BCL2 = assay: qPCR relative gene expression in T24 cells, BCL2; type: cell-based, human; conditions: 48 h; 2c at 32 µM, 2d at 68 µM; normalized to B2M, 2^−ΔΔCt vs vehicle; mean ± SEM, n = 5
Protocol: as §1, §2

GSTP1 = assay: qPCR relative gene expression in T24 cells, GSTP1; type: cell-based, human; conditions: 48 h; 2c at 32 µM, 2d at 68 µM; normalized to B2M, 2^−ΔΔCt vs vehicle; mean ± SEM, n = 5
Protocol: as §1, §2

T24 and DU-145 cells = assay: MTT cytotoxicity assay, both cancer cell lines; type: cell-based; conditions: Homo sapiens; mean of T24 and DU-145 IC50
Protocol: as §3, §4, §5

HEK-293 kidney cells = assay: MTT cytotoxicity assay, HEK-293; type: cell-based; conditions: Homo sapiens, HEK293, non-tumor cells, 48 h incubation (b12: 72 h), n = 3, read-out: IC50 ± SEM HEK-293
Protocol: as §3, §4, §5

HRAS = assay: qPCR relative gene expression in T24 cells, HRAS; type: cell-based, human; conditions: 48 h; 2c at 32 µM, 2d at 68 µM; normalized to B2M, 2^−ΔΔCt vs vehicle; mean ± SEM, n = 5
Protocol: as §1, §2

T24 (bladder) cells = assay: MTT cytotoxicity assay, T24; type: cell-based, human; conditions: Homo sapiens, 48 h incubation (b12: 72 h), n = 3, read-out: IC50 ± SEM T24
Protocol: as §3, §4, §5

HDAC4 = assay: qPCR relative gene expression in T24 cells, HDAC4; type: cell-based, human; conditions: 48 h; 2c at 32 µM, 2d at 68 µM; normalized to B2M, 2^−ΔΔCt vs vehicle; mean ± SEM, n = 5
Protocol: as §1, §2

mTOR = assay: qPCR relative gene expression in T24 cells, mTOR; type: cell-based, human; conditions: 48 h; 2c at 32 µM, 2d at 68 µM; normalized to B2M, 2^−ΔΔCt vs vehicle; mean ± SEM, n = 5
Protocol: as §1, §2

[1] = Half-wave potentials by cyclic voltammetry in acetonitrile; type: physicochemical; conditions: rt, Pt electrode, vs non-aqueous Ag/Ag+, given as negative of potential; for −E^I 1/2: first one-electron reduction, 0.1 M tetraethylammonium tetrafluoroborate; for −E^II 1/2: second one-electron reduction
Protocol: The members of the 3-acyl-2,5-bis(phenylamino)-1,4-benzoquinone series 2a–q were evaluated for their half-wave potentials (E^I 1/2 and E^II 1/2). They were measured by cyclic voltammetry in acetonitrile at room temperature, using a platinum electrode and 0.1 M tetraethylamoniumtetrafluoroborate as the supporting electrolyte. The voltammograms were run in the potential range from 0.0 to −2.0 V versus non-aqueous Ag/Ag^+.

GSR = assay: qPCR relative gene expression in T24 cells, GSR; type: cell-based, human; conditions: 48 h; 2c at 32 µM, 2d at 68 µM; normalized to B2M, 2^−ΔΔCt vs vehicle; mean ± SEM, n = 5
Protocol: as §1, §2

TP53 = assay: qPCR relative gene expression in T24 cells, TP53; type: cell-based, human; conditions: 48 h; 2c at 32 µM, 2d at 68 µM; normalized to B2M, 2^−ΔΔCt vs vehicle; mean ± SEM, n = 5
Protocol: as §1, §2

[2] = tested on: human colon adenocarcinoma; set-up: method as in PMID 3746824; conditions: cited from earlier work
leukemia L1210 = tested on: leukemia L1210; set-up: method as in PMID 3746824; conditions: cited from earlier work

| Compound | Relative Expression Levels in T24 Cells, HDAC3 (HDAC3) | Relative Expression Levels in T24 Cells, CDC25A (CDC25A) | IC50 (DU-145 (prostate) cells) [µM] | Relative Expression Levels in T24 Cells, BCL2 (BCL2) | Relative Expression Levels in T24 Cells, GSTP1 (GSTP1) | IC50 (T24 and DU-145 cells) [µM] | IC50 (HEK-293 kidney cells) [µM] | Relative Expression Levels in T24 Cells, HRAS (HRAS) | IC50 (T24 (bladder) cells) [µM] | Relative Expression Levels in T24 Cells, HDAC4 (HDAC4) | Relative Expression Levels in T24 Cells, mTOR (mTOR) | −E^I 1/2 [1] [mV] | −E^II 1/2 [1] [mV] | Relative Expression Levels in T24 Cells, GSR (GSR) | Relative Expression Levels in T24 Cells, TP53 (TP53) | in vitro inhibitory activity against human colon adenocarcinoma proliferation [2] | activity against the leukemia L1210 screening in vitro (leukemia L1210) |
| --- | --- | --- | --- | --- | --- | --- | --- | --- | --- | --- | --- | --- | --- | --- | --- | --- | --- |
| CCCCCC(=O)C1=C(Nc2ccccc2)C(=O)C=C(Nc2ccccc2)C1=O [2c, 3-Hexanoyl-2,5-bis(phenylamino)-1,4-benzoquinone] | 1.03 ± 0.15 | 1.54 ± 0.13 | 45.2 ± 4.5 | 1.28 ± 0.15 | 0.9 ± 0.08 | 30.7 | > 100 | 1.07 ± 0.13 | 16.3 ± 1.7 | 1.08 ± 0.13 | 0.99 ± 0.13 | 570 | 1090 | 0.96 ± 0.05 | 1.06 ± 0.11 | – | – |
| CCCCCCCC(=O)C1=C(Nc2ccccc2)C(=O)C=C(Nc2ccccc2)C1=O [2d, 3-Octanoyl-2,5-bis(phenylamino)-1,4-benzoquinone] | 1.02 ± 0.05 | 1.07 ± 0.03 | 23.5 ± 2.1 | 0.8 ± 0.04 | 1.21 ± 0.04 | 28.7 | > 100 | 1.33 ± 0.06 | 34 ± 3.7 | 1.01 ± 0.02 | 0.95 ± 0.02 | 590 | 910 | 1.07 ± 0.04 | 1.01 ± 0.04 | – | – |
| CC(C)c1ccc(NC2=C(Cl)C(=O)C(Nc3ccc(C(C)C)cc3)=C(Cl)C2=O)cc1 [B] | – | – | – | – | – | – | – | – | – | – | – | – | – | – | – | good in vitro inhibitory activity | active |
